Values quoted from earlier work as cited in patent US20040170686A1, “Suspension vehicle for coated drug particles” (priority 2003, published 2004).

System: gram-positive organisms
Settings: gram-positive organisms incl. Staphylococcus, Streptococcus, Enterococcus, Bacillus, Corynebacterium

Q: For CC(=O)NC[C@H]1CN(c2ccc(N3CCOCC3)c(F)c2)C(=O)O1 [Linezolid, linezolid], which antibacterial activity is on record?
A: strong antibacterial activity
